Test results: patent US20090281133A1, “Heterocyclic antiviral compounds” (Roche Palo Alto LLC, priority 2008, published 2009)

B1: RANTES: CC chemokine, naturally occurring chemokine that can stimulate the CCR5 receptor (protein, UniProt P13501 24-91, looked up)
C-C motif chemokine 5: SPYSSDTTPCCFAYIARPLPRAHIKEYFYTSGKCSNPAVVFVTRKNRQVCANPEKKWVREYINSLEMS

Tested on: collagen induced arthritis
Assay: not given
Conditions: collagen-induced arthritis model; cited from earlier work

In the case of Cc1ccc(-c2ccc3c(c2)C=C(C(=O)Nc2ccc(C[N+](C)(C)C4CCOCC4)cc2)CCC3)cc1.[Cl-] [TAK-779], the “incidence and severity of arthritis” value is listed as “reduce both the incidence and severity of arthritis”.

For Cc1ccc(-c2ccc3c(c2)C=C(C(=O)Nc2ccc(C[N+](C)(C)C4CCOCC4)cc2)CCC3)cc1.[Cl-] [TAK-779], the “infiltration of inflammatory CCR5+ T-cells into the joint” value is given as “inhibited”.

Tested on: not given
Assay: not given
Conditions: not given

Molecule CCCCC1CN(CC2CCOCC2)C(=O)CC12CCN(C1(C)CCN(C(=O)c3c(C)ncnc3C)CC1)CC2 (centres unmarked) [I-4] has a melting point of 92.8 to 100.1 °C.

Tested on: HIV
Assay: not given
Conditions: cited from earlier work

For B1, the “block of HIV entry into the cells” value is listed as “block HIV entry into the cells”.

Tested on: CCR5-mediated fusion of Hela-R5 cells with CEM-NKr-CCR5-Luc cells
Assay: CCR5-mediated cell-cell fusion (CCF) assay
Format: cell-based
Conditions: luciferase readout, 24 hrs co-culture
Description: CCF assay was performed as described before (C. Ji, J. Zhang, N. Cammack and S. Sankuratri, J. Biomol. Screen. 2006 11(6):652-663). Hela-R5 cells (express gp160 from R5-tropic virus and HIV-1 Tat) were plated in 384 well white culture plates (BD Bioscience, Palo Alto, Calif.) at 7.5×10^3 cells per well in phenol red-free Dulbecco's Modified Eagle Medium (DMEM) supplemented with 10% FBS, 1× Pen-Strep, 300 μg/mL G418, 100 μg/mL hygromycin, and 1 μg/mL Doxycycline (Dox) (BD Bioscience, Palo Alto, Calif.), using Multimek (Beckman, Fullerton, Calif.) and incubated at 37° C. overnight to induce the expression of gp160. Ten μL diluted compounds in medium containing 5% DMSO were added to the cells, followed by the addition of CEM-NKr-CCR5-Luc (obtained from NIH AIDS Research & Reference Reagents Program) that expresses CD4 and CCR5 and carries a HIV-2 long terminal repeat (LTR)-driven luciferase reporter gene at 1.5×10^4 cells/15 μL/well and incubated for 24 hrs. At the end of co-culture, 15 μL of Steady-Glo luciferase substrate was added into each well, and the cultures were sealed and gently shaken for 45 min. The luciferase activity were measured for 10 sec per well as luminescence by using 16-channel TopCount NXT (PerkinElmer, Shelton, Conn.) with 10 min dark adaptation and the readout is count per second (CPS). […]

In the case of CCCCC1CN(C[C@H]2CC[C@H](OCC)CC2)C(=O)CC12CCN(C1(C)CCN(C(=O)c3c(C)ncnc3C)CC1)CC2 (mixture of isomers) [I-1, 5-Butyl-9-[1-(4,6-dimethyl-pyrimidine-5-carbonyl)-4-methyl-piperidin-4-yl]-3-(4-ethoxy-cyclohexylmethyl)-3,9-diaza-spiro[5.5]undecan-2-one], the IC50 is reported as less than 2.5 nM.

Target: T1, Human CCR5 receptor (Homo sapiens, UniProt P51681)
T1 construct: expressed in transfected cells
Assay: Human CCR5 receptor-ligand binding assay
Conditions: CHO-Gα16-hCCR5 cells, 125I RANTES binding
From the text: Human CCR5 Receptor-Ligand Binding Assay Protocol
Human CCR5 receptor (Genebank ID: 29169292) was cloned into mammalian expression vector, pTarget (Promega). The construct was transfected into CHO-Gα16 cells by using Fugene Reagent (Roche). Clones were selected under antibiotic pressure (G418 and Hygromycin) and sorted 4 times with a fluorescence activates cell sorter and a monoclonal antibody specific for CCR5 receptor (BD Biosciences Pharmigen, Mab 2D7, Cat. No. 555993). The clone with highest expression (100,000 copies per cell) was chosen for the binding assays.
Adherent cells in […] tissue culture flask (˜90% confluent) were harvested using 1 mM EDTA in PBS (phosphate-buffered saline) without Ca^2+ and Mg^2+. Cells were washed twice with PBS containing no Ca^2+ and Mg^2+. CHO-Gα16-hCCR5 cells were then resuspended (1×10^6/mL) in ice cold binding buffer (50 mM HEPES, 1 mM CaCl2, 5 mM MgCl2, 0.5% BSA, 0.05% NaN3, pH 7.24), pH 7.4), supplemented with freshly made 0.5% BSA and 0.05% NaN3.
Eighty μl CHO-Gα16-hCCR5 (1×10^6/mL) cells were added to 96 well plates. All dilutions were made in binding buffer (50 mM HEPES, 1 mM CaCl2, 5 mM MgCl2, 0.5% BSA, 0.05% NaN3, pH 7.24).
The plates were incubated on a cell shaker at RT for 2 h with a final concentration of 0.1 nM ^125I RANTES or ^125I MIP-1α or ^125I MIP-1β. The compound dilutions were made in PBS, 1% BSA. Total reaction volume was 100 μl per well. The test compounds were added to the cells prior to the addition of radioligand.
After incubation, the cells were harvested onto GF/C filter plates using Packard cell harvester. Filters were pretreated with 0.3% PEI/0.2% BSA for 30 min. The filter plate was washed rapidly 5 times with 25 mM HEPES, 500 mM NaCl, 1 mM CaCl2 and 5 mM MgCl2 adjusted to pH 7.1. Plates were dried in oven (70° C.) for 20 min, added with 40 μl scintillation fluid and sealed with Packard TopSeal-A. Packard Top Count was used to measure of the radioactivity for 1 min per well.
Total binding was determined with control wells added with radioisotope and buffer and the non-specific binding was determined using an excess cold RANTES to some of the control wells. Specific binding was determined by subtracting the non-specific form total binding. Results are expressed as the percentage of specific ^125I RANTES binding. IC50 values were determined using varying concentrations of the test ligand in triplicates and the data was analyzed using GraphPad Prism (GraphPad, San Diego, Calif.).

T1 sequence (P51681 whole entry): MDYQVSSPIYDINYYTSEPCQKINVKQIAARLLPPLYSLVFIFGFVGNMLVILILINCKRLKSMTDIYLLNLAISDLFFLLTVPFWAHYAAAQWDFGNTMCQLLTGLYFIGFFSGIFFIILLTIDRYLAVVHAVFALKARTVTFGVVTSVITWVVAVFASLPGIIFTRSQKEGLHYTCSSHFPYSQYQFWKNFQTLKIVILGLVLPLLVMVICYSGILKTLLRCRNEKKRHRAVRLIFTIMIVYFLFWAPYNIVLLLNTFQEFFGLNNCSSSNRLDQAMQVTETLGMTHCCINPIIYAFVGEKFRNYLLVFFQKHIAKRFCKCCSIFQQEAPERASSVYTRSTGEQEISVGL

CCCCC1CN(C[C@H]2CC[C@H](OCC)CC2)C(=O)CC12CCN(C1(C)CCN(C(=O)c3c(C)ncnc3C)CC1)CC2 (mixture of isomers) [I-1, 5-Butyl-9-[1-(4,6-dimethyl-pyrimidine-5-carbonyl)-4-methyl-piperidin-4-yl]-3-(4-ethoxy-cyclohexylmethyl)-3,9-diaza-spiro[5.5]undecan-2-one] and CCCCC1CN(CC2CCC(OCC)CC2)C(=O)CC12CCN(C1(C)CCN(C(=O)c3c(C)ncnc3C)CC1)CC2 (single isomer, unassigned) [I-2] are within 1.5-fold of each other in IC50: 30.4 nM for the first, 26.8 nM for the second.

CCCCC1CN(CC2CCC(OCC)CC2)C(=O)CC12CCN(C1(C)CCN(C(=O)c3c(C)ncnc3C)CC1)CC2 (single isomer, unassigned) [I-3] and CCCCC1CN(C[C@H]2CC[C@@H](OCC)CC2)C(=O)CC12CCN(C1(C)CCN(C(=O)c3c(C)ncnc3C)CC1)CC2 (some centres unmarked) [I-9] are within 1.5-fold of each other in IC50: 32.9 nM for the first, 32 nM for the second.

CCCCC1CN(CC2CCOCC2)C(=O)CC12CCN(C1(C)CCN(C(=O)c3c(C)ncnc3C)CC1)CC2 (centres unmarked) [I-4] and CCCCC1CN(CC2CCOCC2)C(=O)CC12CCN(C1(C)CCN(C(=O)c3c(C)ccnc3C)CC1)CC2 (centres unmarked) [I-12] are within 1.5-fold of each other in IC50: 17.2 nM for the first, 13.7 nM for the second.

CCCCC1CN(C[C@H]2CC[C@H](OC)CC2)C(=O)CC12CCN(C1(C)CCN(C(=O)c3c(C)ncnc3C)CC1)CC2 (some centres unmarked) [I-5] and CCCCC1CN(CC2CCN(C(=O)OC)CC2)C(=O)CC12CCN(C1(C)CCN(C(=O)c3c(C)ncnc3C)CC1)CC2 (centres unmarked) [I-8, 4-{1-Butyl-9-[1-(4,6-dimethyl-pyrimidine-5-carbonyl)-4-methyl-piperidin-4-yl]-4-oxo-3,9-diaza-spiro[5.5]undec-3-ylmethyl}-piperidine-1-carboxylic acid methyl ester] are within 1.5-fold of each other in IC50: 20.8 nM for the first, 24.4 nM for the second.

Going from CCCCC1CN(CC2CCN(S(C)(=O)=O)CC2)C(=O)CC12CCN(C1(C)CCN(C(=O)c3c(C)ncnc3C)CC1)CC2 (centres unmarked) [I-6] to CCCCC1CN(CC2CCN(C(C)=O)CC2)C(=O)CC12CCN(C1(C)CCN(C(=O)c3c(C)ncnc3C)CC1)CC2 (centres unmarked) [I-7], the IC50 rises from 16.9 nM to 51.7 nM (3.1-fold).

CCCCC1CN(C[C@@H]2CCOC2)C(=O)CC12CCN(C1(C)CCN(C(=O)c3c(C)ccnc3C)CC1)CC2 (some centres unmarked) [I-10] and CCCCC1CN(C[C@H]2CCOC2)C(=O)CC12CCN(C1(C)CCN(C(=O)c3c(C)ccnc3C)CC1)CC2 (stereo partly drawn) [I-14, 5-Butyl-9-[1-(2,4-dimethyl-pyridine-3-carbonyl)-4-methyl-piperidin-4-yl]-3-[(R)-1-(tetrahydro-furan-3-yl)methyl]-3,9-diaza-spiro[5.5]undecan-2-one] are within 1.5-fold of each other in IC50: 24.9 nM for the first, 17.7 nM for the second.

CCCCC1CN(CC2CCCCO2)C(=O)CC12CCN(C1(C)CCN(C(=O)c3c(C)ncnc3C)CC1)CC2 (centres unmarked) [I-11] and CCCCC1CN(CC2CCC(O)CC2)C(=O)CC12CCN(C1(C)CCN(C(=O)c3c(C)ccnc3C)CC1)CC2 (centres unmarked) [I-15, 5-Butyl-9-[1-(2,4-dimethyl-pyridine-3-carbonyl)-4-methyl-piperidin-4-yl]-3-(4-hydroxy-cyclohexylmethyl)-3,9-diaza-spiro[5.5]undecan-2-one] are within 1.5-fold of each other in IC50: 24.6 nM for the first, 30.5 nM for the second.

CCCCC1CN(CC2CCOCC2)C(=O)CC12CCN(C1(C)CCN(C(=O)c3c(C)cc(C#N)nc3C)CC1)CC2 (centres unmarked) [I-13] gave an IC50 of 19.7 nM.
